Source: PubChem BioAssay AID2060511 (Molecular Pharmacology Branch, DTP, NCI, 2025)

System: 422866-222-R5-J1-PDC spheroids with HUVEC/MSC, viability
Experiment: Anticancer human tumor 422866-222-R5-J1-PDC patient-derived pancreatic adenocarcinoma cell line growth inhibition [GQUAD]
Conditions: for viability, T/C: stronger effect = lower value
Description: DNA G-quadruplex Stabilizer Agents in Combinations in Complex Spheroids
A high-throughput screen of multi-cell type tumor spheroids was designed to identify active combinations of DNA G-quadruplex stabilizer agents and targeted small molecules. Complex spheroids include a stromal component modeled by human endothelial cells (HUVEC) and fibroblasts modeled by human mesenchymal stem cells (MSCs). The concentration ranges selected for each drug and investigational agent were based upon clinically achievable concentrations if the clinical Cmax of the agent was known.
Compounds. The drugs and investigational agents: pidnarulex (CX-5461; NSC782164), APTO-253 (NSC789042), BRACO-19 (NSC847499), peposertib (NSC802822), ceralasertib (NSC780249), elimusertib (NSC800525), camonsertib (NSC841442), AZD-1390 (NSC803789), olaparib (NSC753686), talazoparib (NSC767125), ART-558 (NSC835418), sotorasib (NSC818433), MRTX-1133 (NSC836407), SN-38 (NSC673596), topotecan (NSC609699), etoposide (NSC141540), doxorubicin (NSC123127), gemcitabine (NSC613327), 5-fluorouracil (NSC19893), paclitaxel (NSC125973), vemurafenib (NSC761431), panobinostat (NSC761190), R-306465 (JNJ-16241199; NSC773264), adavosertib (NSC754352), TP-3654 (NSC805149), carboplatin (NSC241240), KSQ-4279 (NSC840948), and staurosporine (NSC755774) were obtained from the National Cancer Institute (NCI) Developmental Therapeutics Program Chemical Repository (34). The FDA-approved anticancer drug set is available from the NCI Developmental Therapeutics Program. […] The stock solutions were prepared in dimethyl sulfoxide (DMSO, Sigma-Aldrich, St. Louis, MO, cat. D2650) at 800-fold the tested concentration and stored at -70 degrees C prior to their use. All drugs and investigational agents were tested over a range starting from a high concentration at or near the clinical Cmax and decreasing in half-log increments. If the clinical Cmax for an agent had not been determined, the highest concentration tested was 10 microM.
2.3 Cell Culture. All cells were maintained in an incubator at 37 degrees C and 5% CO2 with 95% humidity. The PDC lines were cultured according to standard operating procedures established by the NCI PDMR. All PDCs were thawed and cultured in Matrigel-coated flasks prepared with a working solution of 1X Ham's F-12 nutrient mix, without supplementation (Invitrogen, cat. 11765054), 100 U/mL penicillin-streptomycin (Invitrogen, cat. 15140122), and 2.5% Matrigel (Corning Inc., cat. 354248) for the first three passages. The 857933-349-R-J2-PDC line was cultured in 6C/Colon 1B media, which includes advanced DMEM/F-12 (Thermo Fisher Scientific, cat. 12634028), 10 mM HEPES (Thermo Fisher Scientific, cat. 15630080), 1X GlutaMAX supplement (Thermo Fisher Scientific, cat. 35050061), 0.1 mg/mL primocin (InvivoGen, cat. ant-pm-2), 10% defined fetal bovine serum, heat inactivated (HyClone Laboratories Inc., cat. SH30070.03HI), 50% L-WRN conditioned media (ATCC, cat. CRL-3276), 1.25 mM N-Acetyl-L-cysteine (Sigma-Aldrich, cat. A9165), 10 mM nicotinamide (Sigma-Aldrich, cat. N0636), 1X B-27 supplement (Thermo Fisher Scientific, cat. 17504044), 1X N-2 supplement (Thermo Fisher Scientific, cat. 17502048), 10 microM Y-27632 dihydrochloride (Tocris Bioscience, cat. 1254), and 50 ng/mL human EGF recombinant protein (Thermo Fisher Scientific, cat. PHG0311). The 485176-168-R4-J1-PDC line was cultured in Panc media, which includes all 6C/Colon 1B media components plus 100 ng/mL human FGF-10 (Thermo Fisher Scientific, cat. 100-26), 500 nM SB-431542 (Selleckchem, cat. S1067), and gastrin (Tocris, cat. 3006).
[…]

[1] = curve of first compound, second compound 0.0316 µM
[2] = curve of first compound, second compound 0.1 µM
[3] = curve of first compound, second compound 0.316 µM
[4] = curve of first compound, second compound 1 µM
[5] = curve of first compound, second compound 3.16 µM
[6] = curve of first compound, second compound 10 µM
[7] = second compound 0.0316 µM, first compound 0.0316 µM
[8] = second compound 0.0316 µM, first compound 0.1 µM
[9] = second compound 0.0316 µM, first compound 0.316 µM
[10] = second compound 0.0316 µM, first compound 1 µM
[11] = second compound 0.0316 µM, first compound 3.16 µM
[12] = second compound 0.0316 µM, first compound 10 µM
[13] = second compound 0.1 µM, first compound 0.0316 µM
[14] = second compound 0.1 µM, first compound 0.1 µM
[15] = second compound 0.1 µM, first compound 0.316 µM
[16] = second compound 0.1 µM, first compound 1 µM
[17] = second compound 0.1 µM, first compound 3.16 µM
[18] = second compound 0.1 µM, first compound 10 µM
[19] = second compound 0.316 µM, first compound 0.0316 µM
[20] = second compound 0.316 µM, first compound 0.1 µM
[21] = second compound 0.316 µM, first compound 0.316 µM
[22] = second compound 0.316 µM, first compound 1 µM
[23] = second compound 0.316 µM, first compound 3.16 µM
[24] = second compound 0.316 µM, first compound 10 µM
[25] = second compound 1 µM, first compound 0.0316 µM
[26] = second compound 1 µM, first compound 0.1 µM
[27] = second compound 1 µM, first compound 0.316 µM
[28] = second compound 1 µM, first compound 1 µM
[29] = second compound 1 µM, first compound 3.16 µM
[30] = second compound 1 µM, first compound 10 µM
[31] = second compound 3.16 µM, first compound 0.0316 µM
[32] = second compound 3.16 µM, first compound 0.1 µM
[33] = second compound 3.16 µM, first compound 0.316 µM
[34] = second compound 3.16 µM, first compound 1 µM
[35] = second compound 3.16 µM, first compound 3.16 µM
[36] = second compound 3.16 µM, first compound 10 µM
[37] = second compound 10 µM, first compound 0.0316 µM
[38] = second compound 10 µM, first compound 0.1 µM
[39] = second compound 10 µM, first compound 0.316 µM
[40] = second compound 10 µM, first compound 1 µM
[41] = second compound 10 µM, first compound 3.16 µM
[42] = second compound 10 µM, first compound 10 µM
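Further: spheroids exposed to compounds for seven days before reading.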
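Wherever viability, T/C is given: percent viability relative to DMSO vehicle control taken as 100%.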

SMILES: CC(=O)O[C@H]1C(=O)[C@@]2(C)[C@H]([C@H](OC(=O)c3ccccc3)[C@]3(O)C[C@H](OC(=O)[C@H](O)[C@@H](NC(=O)c4ccccc4)c4ccccc4)C(C)=C1C3(C)C)[C@]1(OC(C)=O)CO[C@@H]1C[C@@H]2O + CN(C)c1ccc(Nc2c3ccc(NC(=O)CCN4CCCC4)cc3nc3cc(NC(=O)CCN4CCCC4)ccc23)cc1
- IC50 [1]: > 10000 nM
- IC50 [2]: > 10000 nM
- IC50 [3]: > 10000 nM
- IC50 [4]: > 10000 nM
- IC50 [5]: > 10000 nM
- IC50 [6]: > 10000 nM
- viability, T/C [7]: 78.2%
- viability, T/C [8]: 72.8%
- viability, T/C [9]: 63.9%
- viability, T/C [10]: 66.5%
- viability, T/C [11]: 75.6%
- viability, T/C [12]: 86%
- viability, T/C [13]: 88%
- viability, T/C [14]: 60.7%
- viability, T/C [15]: 65.1%
- viability, T/C [16]: 67.6%
- viability, T/C [17]: 74.3%
- viability, T/C [18]: 79.7%
- viability, T/C [19]: 87.6%
- viability, T/C [20]: 63.1%
- viability, T/C [21]: 51.3%
- viability, T/C [22]: 72.4%
- viability, T/C [23]: 77.2%
- viability, T/C [24]: 81.4%
- viability, T/C [25]: 59.5%
- viability, T/C [26]: 60.5%
- viability, T/C [27]: 74.6%
- viability, T/C [28]: 65.9%
- viability, T/C [29]: 71%
- viability, T/C [30]: 85.6%
- viability, T/C [31]: 62.9%
- viability, T/C [32]: 68.9%
- viability, T/C [33]: 68.1%
- viability, T/C [34]: 65.2%
- viability, T/C [35]: 76.3%
- viability, T/C [36]: 87.6%
- viability, T/C [37]: 63.8%
- viability, T/C [38]: 67.1%
- viability, T/C [39]: 76.5%
- viability, T/C [40]: 79.9%
- viability, T/C [41]: 80.3%
- viability, T/C [42]: 92.4%

SMILES: COc1cccc2c1C(=O)c1c(O)c3c(c(O)c1C2=O)CC(O)(C(=O)CO)CC3OC1CC(N)C(O)C(C)O1 (centres undefined) + Cc1cnc(CNC(=O)c2c(=O)c3ccc(N4CCCN(C)CC4)nc3n3c2sc2ccccc23)cn1
- IC50 [1]: 983 nM
- IC50 [2]: 961 nM
- IC50 [3]: 1180 nM
- IC50 [4]: 1290 nM
- IC50 [5]: 1400 nM
- IC50 [6]: 1110 nM
- viability, T/C [7]: 100%
- viability, T/C [8]: 65.7%
- viability, T/C [9]: 78.6%
- viability, T/C [10]: 46.5%
- viability, T/C [11]: 33.9%
- viability, T/C [12]: 25.7%
- viability, T/C [13]: 89.3%
- viability, T/C [14]: 69.5%
- viability, T/C [15]: 78.9%
- viability, T/C [16]: 48.7%
- viability, T/C [17]: 34.8%
- viability, T/C [18]: 30.1%
- viability, T/C [19]: 83.3%
- viability, T/C [20]: 81.8%
- viability, T/C [21]: 73%
- viability, T/C [22]: 51.5%
- viability, T/C [23]: 37.3%
- viability, T/C [24]: 30%
- viability, T/C [25]: 73.3%
- viability, T/C [26]: 86.8%
- viability, T/C [27]: 80.1%
- viability, T/C [28]: 54.8%
- viability, T/C [29]: 33.7%
- viability, T/C [30]: 29.5%
- viability, T/C [31]: 95.4%
- viability, T/C [32]: 80.4%
- viability, T/C [33]: 79.2%
- viability, T/C [34]: 54.7%
- viability, T/C [35]: 36.5%
- viability, T/C [36]: 34.2%
- viability, T/C [37]: 74.2%
- viability, T/C [38]: 82.6%
- viability, T/C [39]: 75%
- viability, T/C [40]: 50.4%
- viability, T/C [41]: 35.6%
- viability, T/C [42]: 26.7%

SMILES: CN(C)c1ccc(Nc2c3ccc(NC(=O)CCN4CCCC4)cc3nc3cc(NC(=O)CCN4CCCC4)ccc23)cc1
- viability, T/C (compound 0.0316 µM): 96.4% [middle of 12 runs]
- viability, T/C (compound 0.1 µM): 96.8% [middle of 12 runs]
- viability, T/C (compound 1 µM): 90.4% [middle of 12 runs]
- viability, T/C (compound 3.16 µM): 96% [middle of 12 runs]
- IC50 (compound alone, run of 04/22/2024): > 10000 nM
